{"source": "patent US12630563B2", "about": "“Macrocyclic RIP2-kinase inhibitors” (Oncodesign S.A., priority 2020, dated 2026)"}
{"target": "T1, recombinant hRIPK2 protein (kinase domain aa 1-299-His-tagged) (Homo sapiens, UniProt O43353)", "T1 construct": "kinase domain aa 1-299-His-tagged; purchased Life Technologies PR7829A", "T1 sequence (O43353 1-299)": "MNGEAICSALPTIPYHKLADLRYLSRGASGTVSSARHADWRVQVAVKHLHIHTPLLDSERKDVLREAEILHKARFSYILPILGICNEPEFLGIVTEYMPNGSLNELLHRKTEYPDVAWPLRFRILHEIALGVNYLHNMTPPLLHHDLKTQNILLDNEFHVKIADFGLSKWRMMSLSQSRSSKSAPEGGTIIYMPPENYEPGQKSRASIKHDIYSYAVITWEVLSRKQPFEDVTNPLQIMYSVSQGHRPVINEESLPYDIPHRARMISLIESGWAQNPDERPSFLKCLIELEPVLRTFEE", "experiment": "RIPK2 AlphaLISA assay (displacement of bead-bound CZC-8004 from hRIPK2)", "assay_type": "binding", "conditions": "recombinant hRIPK2 kinase domain 10 nM, 2 h at 23° C.", "source_text": "RIPK2 AlphaLISA® Assay (Amplified Luminescent Proximity Homogeneous Assay)\nA non-specific kinase inhibitor (CZC-8004 Cayman #916603-07-1) bound to an acceptor bead (#6772001 PerkinElmer) was mixed to the recombinant hRIPK2 protein (kinase domain aa 1-299-His-tagged—Life Technologies PR7829A) and a Ni2+-tagged donor beads (#AS101D PerkinElmer). In the presence of an inhibitor, the compound beads displacement from hRIPK2 was followed by signal loss. In a 384-well ProxiPlate@ (Perkin Elmer, 6008280) add:\n2 μL RIPK2 inhibitor (in DMSO 0.8%).\n2 μL human recombinant RIPK2 (10 nM diluted in AlphaLISA buffer 1×).\n4 μL Mix of […] 1/1000 in AlphaLISA buffer 1×.\nHomogenize using a microtiter plate shaker and incubate for 2 h at 23° C.\nRead using EnVision®-Alpha Reader (PerkinElmer) according to manufacturer specifications.", "units": {"IC50": "µM"}}
{"smiles": "[2H]C([2H])([2H])Oc1cc2cc(c1)-c1cnn3ccc(nc13)OC[C@@H]1C[C@@H](OCCOC)C(=O)N1CCN2", "note": "(racemic) [Example 95, (12R,14S)-4-(^2H3)methoxy-12-(2-methoxyethoxy)-16-oxa-7,10,20,21,24-pentaazapentacyclo[15.5.2.1^2,6.0^10,^14.0^20,^23]pentacosa-1(23),2(25),3,5,17(24),18,21-heptaen-11-one]", "IC50": "< 0.01"}
{"smiles": "COCCO[C@@H]1C[C@H]2COc3ccn4ncc(c4n3)-c3cc(cc(OC(F)F)c3)NCCN2C1=O", "note": "(racemic) [Example 111, (12R,14S)-4-(difluoromethoxy)-12-(2-methoxyethoxy)-16-oxa-7,10,20,21,24-pentaazapentacyclo[15.5.2.1^2,6.0^10,^14.0^20,^23]pentacosa-1(23),2(25),3,5,17(24),18,21-heptaen-11-one]", "IC50": "< 0.01"}
{"smiles": "CCOc1cc2cc(c1)-c1cnn3ccc(nc13)OC[C@@H]1C[C@@H](OCCOC)C(=O)N1CCN2", "note": "(racemic) [Example 112, (12R,14S)-4-ethoxy-12-(2-methoxyethoxy)-16-oxa-7,10,20,21,24-pentaazapentacyclo[15.5.2.1^2,6.0^10,^14.0^20,^23]pentacosa-1(23),2(25),3,5,17(24),18,21-heptaen-11-one]", "IC50": "< 0.01"}
{"smiles": "COCCO[C@@H]1C[C@H]2COc3ccn4ncc(c4n3)-c3cc(cc(OC(C)C)c3)NCCN2C1=O", "note": "(racemic) [Example 113, (12R,14S)-12-(2-methoxyethoxy)-4-(propan-2-yloxy)-16-oxa-7,10,20,21,24-pentaazapentacyclo[15.5.2.1^2,6.0^10,^14.0^20,^23]pentacosa-1(23),2(25),3,5,17(24),18,21-heptaen-11-one]", "IC50": "0.01 to 0.1"}
{"smiles": "COCCO[C@@H]1C[C@H]2COc3ccn4ncc(c4n3)-c3cc(C#N)cc(c3)NCCN2C1=O", "note": "(racemic) [Example 114, (12R,14S)-12-(2-methoxyethoxy)-11-oxo-16-oxa-7,10,20,21,24-pentaazapentacyclo[15.5.2.1^2,6.0^10,^14.0^20,^23]pentacosa-1(23),2,4,6(25),17(24),18,21-heptaene-4-carbonitrile]", "IC50": "< 0.01"}
{"smiles": "COCCO[C@@H]1C[C@H]2COc3ccn4ncc(c4n3)-c3cc(Cl)cc(c3)NCCN2C1=O", "note": "(racemic) [Example 116, (12R,14S)-4-chloro-12-(2-methoxyethoxy)-16-oxa-7,10,20,21,24-pentaazapentacyclo[15.5.2.1^2,6.0^10,^14.0^20,^23]pentacosa-1(23),2,4,6(25),17(24),18,21-heptaen-11-one]", "IC50": "< 0.01"}
{"smiles": "COCCO[C@@H]1C[C@H]2COc3nc4c(cnn4cc3OC)-c3cc(cc(OC)c3)NCCN2C1=O", "note": "(racemic) [Example 117, (12R,14S)-4,18-dimethoxy-12-(2-methoxyethoxy)-16-oxa-7,10,20,21,24-pentaazapentacyclo[15.5.2.1^2,6.0^10,^14.0^20,^23]pentacosa-1(23),2,4,6(25),17(24),18,21-heptaen-11-one]", "IC50": "< 0.01"}
{"smiles": "C#Cc1cc2cc(c1)-c1cnn3ccc(nc13)OC[C@@H]1C[C@@H](OCCOC)C(=O)N1CCN2", "note": "(racemic) [Example 118, (12R,14S)-4-ethynyl-12-(2-methoxyethoxy)-16-oxa-7,10,20,21,24-pentaazapentacyclo[15.5.2.1^2,6.0^10,^14.0^20,^23]pentacosa-1(23),2(25),3,5,17(24),18,21-heptaen-11-one]", "IC50": "< 0.01"}
{"smiles": "CO[C@@H]1C[C@H]2C(C)Oc3ccn4ncc(c4n3)-c3cc(F)cc(c3)NCCN2C1=O", "note": "(relative stereo) [Example 103, E1-(12R,14S,15R*)-4-fluoro-12-methoxy-15-methyl-16-oxa-7,10,20,21,24-pentaazapentacyclo[15.5.2.1^2,6.0^10,^14.0^20,^23]pentacosa-1(23),2,4,6(25),17(24),18,21-heptaen-11-one]", "IC50": "0.01 to 0.1"}
{"smiles": "COCC1C[C@H]2COc3ccn4ncc(c4n3)-c3cc(F)cc(c3)NCCN2C1=O", "note": "(single isomer, unassigned) [Example 31]", "IC50": "< 0.01"}
{"smiles": "COCC1C[C@H]2COc3ccn4ncc(c4n3)-c3cc(F)cc(c3)NCCN2C1=O", "note": "(single isomer, unassigned) [Example 32]", "IC50": "< 0.01"}
{"smiles": "COCc1cc2cc(c1)-c1cnn3cc(C)c(nc13)OC[C@@H]1CC(OC)C(=O)N1CCN2", "note": "(single isomer, unassigned) [Example 65, (12R or S,14S)-12-methoxy-4-(methoxymethyl)-18-methyl-16-oxa-7,10,20,21,24-pentaazapenta cyclo[15.5.2.1^2,6.0^10,14.0^20,23]pentacosa-1(23),2,4,6(25),17(24), 18,21-heptaen-11-one]", "IC50": "< 0.01"}
{"smiles": "COCc1cc2cc(c1)-c1cnn3cc(C)c(nc13)OC[C@@H]1CC(OC)C(=O)N1CCN2", "note": "(single isomer, unassigned) [Example 66, (12R or S,14S)-12-methoxy-4-(methoxymethyl)-18-methyl-16-oxa-7,10,20,21,24-pentaazapenta cyclo[15.5.2.1^2,6.0^10,14.0^20,23]pentacosa-1(23),2,4,6(25),17(24), 18,21-heptaen-11-one]", "IC50": "< 0.01"}
{"smiles": "CO[C@@H]1CC2(C)COc3ccn4ncc(c4n3)-c3cc(F)cc(c3)NCCN2C1=O", "note": "(single isomer, unassigned) [Example 85]", "IC50": "0.1 to 11"}
{"smiles": "CO[C@@H]1CC2(C)COc3ccn4ncc(c4n3)-c3cc(F)cc(c3)NCCN2C1=O", "note": "(single isomer, unassigned) [Example 86]", "IC50": "< 0.01"}
{"smiles": "COc1cc2cc(c1)-c1cnn3ccc(nc13)OC[C@@H]1C[C@@H](OC)C(=O)N1CC(C)N2", "note": "(single isomer, unassigned) [Example 105, (8R*,12R,14S)-4,12-dimethoxy-8-methyl-16-oxa-7,10,20,21,24-pentaazapentacyclo[15.5.2.1^2,6.0^1°,^14.0^2°,^23]pentacosa-1(23),2,4,6(25),17(24),18,21-heptaen-11-one]", "IC50": "< 0.01"}
{"smiles": "COc1cc2cc(c1)-c1cnn3ccc(nc13)OC[C@@H]1C[C@@H](OC)C(=O)N1CC(C)N2", "note": "(single isomer, unassigned) [Example 106, (8R*,12R,14S)-4,12-dimethoxy-8-methyl-16-oxa-7,10,20,21,24-pentaazapentacyclo[15.5.2.1^2,6.0^1°,^14.0^2°,^23]pentacosa-1(23),2,4,6(25),17(24),18,21-heptaen-11-one]", "IC50": "0.01 to 0.1"}
{"smiles": "COc1cn2ncc3c2nc1OC[C@@H]1C[C@@H](OC)C(=O)N1CCNc1cc-3cc(C(F)(F)F)c1", "note": "[Example 2, (12R,14S)-12,18-dimethoxy-4-(trifluoromethyl)-16-oxa-7,10,20,21,24-pentaazapentacyclo[15.5.2.1^2,6.0^10,^14.0^20,^23]pentacosa-1(23),2(25),3,5,17(24),18,21-heptaen-11-one]", "IC50": "< 0.01"}
{"smiles": "CO[C@@H]1C[C@H]2COc3ccn4ncc(c4n3)-c3cc(Cl)cc(c3)NCCN2C1=O", "note": "[Example 4, (12R,14S)-4-chloro-12-methoxy-16-oxa-7,10,20,21,24-pentaazapentacyclo[15.5.2.1^2,6.0^10,^14.0^20,^23]pentacosa-1(23),2(25),3,5,17(24),18,21-heptaen-11-one]", "IC50": "< 0.01"}
{"smiles": "COc1cc2cc(c1)-c1cnn3ccc(nc13)OC[C@@H]1C[C@@H](OC)C(=O)N1CCN2", "note": "[Example 5, (12R,14S)-4,12-d i methoxy-16-oxa-7,10,20,21,24-pentaazapentacyclo[15.5.2.1^2,6.0^10,^14.0^20,^23]pentacosa-1(23),2(25),3,5,17(24),18,21-heptaen-11-one]", "IC50": "< 0.01"}
{"smiles": "CCO[C@@H]1C[C@H]2COc3ccn4ncc(c4n3)-c3cc(cc(OC)c3)NCCN2C1=O", "note": "[Example 6, (12R,14S)-12-ethoxy-4-methoxy-16-oxa-7,10,20,21,24-pentaazapentacyclo[15.5.2.1^2,6.0^10,^14.0^20,^23]pentacosa-1(23),2,4,6(25),17(24),18,21-heptaen-11-one]", "IC50": "< 0.01"}
{"smiles": "CCOc1cc2cc(c1)-c1cnn3ccc(nc13)OC[C@@H]1C[C@@H](OC)C(=O)N1CCN2", "note": "[Example 7, (12R,14S)-4-ethoxy-12-methoxy-16-oxa-7,10,20,21,24-pentaazapentacyclo[15.5.2.1^2,6.0^10,^14.0^20,^23]pentacosa-1(23),2(25),3,5,17(24),18,21-heptaen-11-one]", "IC50": "< 0.01"}
{"smiles": "CO[C@@H]1C[C@H]2COc3ccn4ncc(c4n3)-c3cc(cc(OC(C)C)c3)NCCN2C1=O", "note": "[Example 8, (12R,14S)-12-methoxy-4-(propan-2-yloxy)-16-oxa-7,10,20,21,24-pentaazapentacyclo[15.5.2.1^2,6.0^10,^14.0^20,^23]pentacosa-1(23),2,4,6(25),17(24),18,21-heptaen-11-one]", "IC50": "< 0.01"}
{"smiles": "CC(C)O[C@@H]1C[C@H]2COc3ccn4ncc(c4n3)-c3cc(F)cc(c3)NCCN2C1=O", "note": "[Example 9, (12R,14S)-4-fluoro-12-(propan-2-yloxy)-16-oxa-7,10,20,21,24-pentaazapentacyclo[15.5.2.1^2,6.0^10,^14.0^20,^23]pentacosa-1(23),2,4,6(25),17(24),18,21-heptaen-11-one]", "IC50": "< 0.01"}
{"smiles": "O=C1[C@H](OC2CCC2)C[C@H]2COc3ccn4ncc(c4n3)-c3cc(F)cc(c3)NCCN12", "note": "[Example 10, (12R,14S)-12-cyclobutoxy-4-fluoro-16-oxa-7,10,20,21,24-pentaazapentacyclo[15.5.2.1^2,6.0^10,^14.0^20,^23]pentacosa-1(23),2,4,6(25),17(24),18,21-heptaen-11-one]", "IC50": "< 0.01"}
